Where two headings read alike, the source gives them in different places.
Biological target: T1, human GnRH receptor (Homo sapiens, UniProt P30968)
T1 construct: The cDNA for the human GnRH receptor is cloned into the plasmid expression vector, pcDNA 3; expressed in transfected cells; host or cells: HEK 293 cells, stably transfected (pcDNA 3); membrane preparation
T1 sequence (P30968 1-328): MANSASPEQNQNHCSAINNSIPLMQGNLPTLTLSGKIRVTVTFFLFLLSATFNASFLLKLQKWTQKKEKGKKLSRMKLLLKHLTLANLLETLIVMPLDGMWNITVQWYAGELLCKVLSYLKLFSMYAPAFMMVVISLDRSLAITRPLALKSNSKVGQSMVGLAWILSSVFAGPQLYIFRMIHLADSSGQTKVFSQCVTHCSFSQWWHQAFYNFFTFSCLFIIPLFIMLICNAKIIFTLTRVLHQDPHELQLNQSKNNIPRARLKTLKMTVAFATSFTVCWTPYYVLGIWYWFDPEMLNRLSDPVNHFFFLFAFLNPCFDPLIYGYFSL
Experiment: GnRH receptor competitive radioligand binding assay (125I-GnRH-A, HEK 293 cell membranes)
Conditions: compound at 10 μM
Source text: The cDNA for the human GnRH receptor is cloned into the plasmid expression vector, pcDNA 3 (In Vitrogen), and stably transfected in HEK 293 cells (a cell line developed by Dr. Stuart Sealfon, Mount Sinai Medical School, New York, N.Y.).
The human GnRH receptor (hGnRH) is cloned into pcDNA 3 (In Vitrogen), which provides high-level expression and a neomycin resistance marker. Lipofectamine (GIBCO BRL) is used to transfect HEK 293 cells with plasmid DNA. This method involves mixing the plasmid and reagent in serum-free medium, allowing DNA-liposome complexes to form, and overlaying cells with this solution. The HEK 293 cells are plated (seeded) on a 10-cm tissue culture dish at a density of 3×10^6 cells/dish the day before transfection. For each plate, 8 μg DNA plus 0.8 mL serum-free medium is mixed with 48 μL lipofectamine plus 0.8 mL serum-free medium, followed by incubation for 30 minutes at room temperature to allow DNA-liposome complexes to form. Serum-free medium is added to give a final volume of 6 mL/plate. The cells are rinsed twice with serum-free medium and overlayed with the DNA-liposome mixture. Five hours after transfection, an equal volume (6 mL) of medium containing 20% FBS (fetal bovine serum) is added. The cells are fed with fresh complete medium 18-24 hours after transfection. The cells are split 72 hours following transfection, at densities of 1:10 and 1:20. Stable tranformants are selected for by growth of the cells in antibiotic containing medium (G418, Sigma Chemical Company (also known as Geneticin)). Colonies are isolated and tested for receptor expression by radioligand binding and by measuring phosphoinositol turnover.
HEK 293 cells stably transfected with human GnRH receptors as described above are grown in MEM (minimal essential medium, available from Sigma Chemical Company) supplemented with 0.1% G418 (Sigma Chemical Company). Cells are homogenized in buffer A containing 50 mM Tris (pH 74.), 0.32M sucrose, 2 mM ethyleneglycol-bis(β-aminoethyl)-N,N,N′,N′-tetraacetic acid (EGTA), 1 mM phenylmethylsulfonyl fluoride (PMSF), 5 μg/mL aprotinen, 5 μg/mL Pepstatin A, and 1 μg/mL leupeptin. The homogenized cells are centrifuged at 4° C. at 20,000×g for 25 minutes, resuspended in buffer A, and recentrifuged at 4° C. at 20,000×g for an additional 25 minutes. Total membrane protein is determined with a BCA kit (Pierce, Rockford, Ill.). Membranes are stored at −70° C. at a final membrane protein concentration of 5 mg/mL.
The radioiodinated agonist analog of GnRH, [des-Gly^10, D-Ala^8]GnRH ethylamide (GnRH-A), is used as the labeled ligand. One μg of GnRH-A diluted in 0.1M acetic acid is added to an lodogen®-coated borosilicate glass tube pierce) containing 35 μL of 0.05M phosphate buffer (pH 7.4-7.6) and 1 mCi of Na[^125I]. The reaction mixture is vortexed and incubated for 1 minute at room temperature. After one minute, the mixture is vortexed again and allowed to incubate for an additional minute. Two mL of 0.5M acetic acid/1% BSA is added to the reaction tube, and the mixture is added to a C18 Sep-Pak cartridge. The cartridge is washed with subsequent washes of 5 mL H2O and 5 mL 0.5M acetic acid, and then eluted with 5×1 mL of 60% CH3CN/40% 0.5M acetic acid. The eluant is diluted with 3×volume of HPLC buffer A (0.1% TFA in H2O) and loaded onto a C18 column. The iodinated product is eluted over 20-25 minutes with a gradient of 25-100% CH3CN containing 0.1% TFA. The radioactive fractions (750 μL/fraction) are collected into clean polypropylene tubes containing 10 μL of 10% BSA. Fractions are assessed for biological activity by radioligand binding. Active fractions are utilized to screen the compounds for competitive binding assays.
HEK 293 cell membranes stably expressing hGnRHR (human GnRH receptors) are diluted to 0.5-1.0 mg/mL with assay buffer containing 50 mM HEPES (pH 7.4), 1 mM ethylenediarninetetraacetic acid (EDTA), 2.5 mM MgCl2, and 0.1% BSA. […]

[1] = average of 1st and 2nd test, read-out: Average % Remaining (percent of specific binding remaining)
[2] = crude compounds, 125I-GnRH-A, lower value = higher inhibition, read-out: % Remaining 1st Test (percent of specific binding remaining)
[3] = crude compounds, 125I-GnRH-A, lower value = higher inhibition, read-out: % Remaining 2nd Test (percent of specific binding remaining)

SMILES | remaining activity at 10 µM [1] | remaining activity at 10 µM [2] | remaining activity at 10 µM [3]
N=C(N)NCc1ccc(CN(CC23CC=CCC2C2CC=CCC2O3)C(=O)c2ccc3ccccc3c2)cc1 (stereo not drawn) [Compound 5] | 37% | 31% | 33%
N=C(N)NCc1ccc(CN(CC23CC=CCC2C2CC=CCC2O3)C(=O)c2cccs2)cc1 (stereo not drawn) [Compound 6] | 46% | 47% | 45%
N=C(N)NCc1ccc(CN(CC23CC=CCC2C2CC=CCC2O3)C(=O)c2ccco2)cc1 (stereo not drawn) [Compound 7] | 53% | 51% | 55%
N=C(N)NCc1ccc(CN(CC23CC=CCC2C2CC=CCC2O3)C(=O)c2ccccc2)cc1 (stereo not drawn) [Compound 8] | 45% | 42% | 48%
N=C(N)NCc1ccc(CN(CC23CC=CCC2C2CC=CCC2O3)C(=O)c2ccc(Cl)nc2)cc1 (stereo not drawn) [Compound 9] | 52% | 51% | 53%
Cc1cc2c(cc1CN(Cc1ccc(CNC(=N)N)cc1)C(=O)C1CCCCC1)C(C)(C)CCC2(C)C [Compound 10] | 53% | 51% | 54%
Cc1cc2c(cc1CN(Cc1ccc(CNC(=N)N)cc1)C(=O)c1ccco1)C(C)(C)CCC2(C)C [Compound 13] | 13% | 14% | 11%
Cc1cc2c(cc1CN(Cc1ccc(CNC(=N)N)cc1)C(=O)c1ccccc1)C(C)(C)CCC2(C)C [Compound 14] | 55% | 56% | 54%
CC(=O)N(Cc1ccc(CNC(=N)N)cc1)Cc1cc2c(cc1C)C(C)(C)CCC2(C)C [Compound 15] | 59% | 58% | 60%
Cc1cc2c(cc1CN(Cc1ccc(CNC(=N)N)cc1)C(=O)c1ccc(Cl)nc1)C(C)(C)CCC2(C)C [Compound 16] | 49% | 50% | 47%
N=C(N)NCc1ccc(CN(Cc2ccc(OCc3ccccc3)c(OCc3ccccc3)c2)C(=O)c2ccc(Cl)nc2)cc1 [Compound 20] | 57% | 60% | 54%
CCOc1cc(OCC)c(OCC)cc1CN(Cc1ccc(CNC(=N)N)cc1)C(=O)c1ccco1 [Compound 22] | 55% | 52% | 57%

Now from value to molecule:

remaining activity at 10 µM [1] | remaining activity at 10 µM [2] | remaining activity at 10 µM [3] | SMILES
57% | 57% | 57% | CC(C)(C)c1ccc(CN(Cc2ccc(CNC(=N)N)cc2)C(=O)c2cccc3ccccc23)cc1 [Compound 1]
57% | 59% | 54% | CC(C)(C)c1ccc(CN(Cc2ccc(CNC(=N)N)cc2)C(=O)c2ccccc2)cc1 [Compound 2]
55% | 58% | 57% | CN(C)CCCOc1ccc(CN(Cc2ccc(CNC(=N)N)cc2)C(=O)c2ccc3ccccc3c2)cc1 [Compound 3]
40% | 40% | 40% | N=C(N)NCc1ccc(CN(CC23CC=CCC2C2CC=CCC2O3)C(=O)c2cccc3ccccc23)cc1 (stereo not drawn) [Compound 4]
53% | 55% | 50% | Cc1cc2c(cc1CN(Cc1ccc(CNC(=N)N)cc1)C(=O)c1cccc3ccccc13)C(C)(C)CCC2(C)C [Compound 11]
45% | 47% | 42% | N=C(N)NCc1ccc(CN(Cc2ccc(OCc3ccccc3)c(OCc3ccccc3)c2)C(=O)c2ccccc2)cc1 [Compound 19]
49% | 46% | 51% | CC(=O)N(Cc1ccc(CNC(=N)N)cc1)Cc1ccc(OCc2ccccc2)c(OCc2ccccc2)c1 [Compound 21]
